These results are taken from patent US9145411B2, “Substituted amino-pyrimidine derivatives” (Asana Biosciences, LLC, priority 2012, dated 2015).

One experiment addresses T1, PI3Kα (wild-type) (Homo sapiens, UniProt P42336).
T1 construct: made in house; host or cells: SF9 insect cells
The experiment in a line: PI3 Kinase TR-FRET assay, PI3Kα (wild-type). Format: biochemical. As to conditions: wild-type P110/P85α, 10 μM ATP. Summed up:
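Sf9-expressed, Ni-purified p110/p85α (5 ng) with PIP2 was preincubated with compound for 60 min at room temperature in buffer with 40 mM MgCl2 and 5 mM DTT. The reaction ran 30 min at room temperature with 10 μM PIP2 and 10 μM ATP. The TR-FRET 665/615 nm ratio was used to derive IC50 from dose-response curves.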
For orientation: In TR-FRET formats the signal depends on donor and acceptor labels being close together.

A further experiment concerns the target T2, mTOR kinase (Homo sapiens, UniProt P42345).
T2 construct: purchased Millipore, USA
The experiment is described as follows: mTOR kinase TR-FRET assay. Format: biochemical. Particulars: 20 μM ATP. Summed up: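 Test compounds were pre-incubated 60 min with mTOR (5 ng), then ULight-p70 S6K (Thr389) peptide (50 nM) and ATP (20 μM) were added in HEPES 50 mM pH 7.5, EGTA, MnCl2 3 mM. After 60 min at room temperature, EDTA stop and Eu-anti-phospho antibody TR-FRET (665/615 nm) gave IC50 from sigmoidal variable-slope fits.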

A further experiment concerns PC3 cells. The experiment is described as follows: XTT assay for cell viability, PC3 cells. Format: cell-based. Particulars: Homo sapiens, PC-3; PC3 cell proliferation, 96 hours. The procedure, abridged:
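Log-phase PC3 cells (1000/well) were seeded for 24 h, then exposed to serially diluted compounds (DMSO dilutions) for 96 h. Viability was measured by XTT dye conversion at 37 °C, with absorbance read at 465 nm. EC50 was obtained from a sigmoidal dose-response fit.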

In a further experiment the test system is pS6RP (S235/236). The experiment in a line: In-cell Western assay, pS6RP (S235/236), PC3 cells. Format: cell-based. As to conditions: Homo sapiens, PC-3, 2 hours incubation. The method, then: (§1) Cells from human prostate cancer cell line PC3 (American Type Culture Collection (ATCC), Manassas, Va. 20108 USA) were seeded at an optimal density of 22,000 cell/well in 96-well plates containing Ham's F12K medium (90 μL) and incubated overnight. The compound dilutions were carried out in 100% DMSO followed by a dilution in the medium. Test compounds were added in serial dilutions to the wells and incubated for 2 hours. The cells were washed and fixed with 4% paraformaldehyde. After incubation at room temperature for 1 hour in the dark, blocking was done for 2 hours at room temperature. Primary antibodies for pAkt(S473) ([…] phosphorylated at serine 473), pAkt(T308) (Akt phosphorylated at threonine 308) and for pS6RP (S235/236) (phosphorylated at serine 235/236) (commercially available from Cell Signaling Technology®, whose protocol was followed for the in-cell western assay, were diluted to the required concentration and added to the corresponding wells followed by overnight incubation at 4° C. Eu-labeled rabbit (PE) (Perkin-Elmer USA catalog #AD0106) secondary antibody was added and incubated for 2 hours at room temperature. Delfia® enhancement solution (cat #1244-105, Perkin Elmer USA) was subsequently added to the plate before taking the reading at 615 nm with excitation wavelength of 340 nm, after which 0.5 μg/mL of Hoechst® 33258 dye (Catalog #86140-5, Sigma) was added to the plate and fluorescence emission was read at 460 nm with 355 nm excitation, to evaluate the correction factor. IC50 values were calculated using a sigmoidal dose-response curve fit in GraphPad Prism® v5 software.

Another experiment deals with pAkt(T308). The experiment is described as follows: In-cell Western assay, pAkt(T308), PC3 cells. Format: cell-based. As to conditions: Homo sapiens, PC-3, 2 hours incubation. The procedure, abridged: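 PC3 cells, 22,000/well in Ham's F12K, exposed to serial compound dilutions for 2 h, then fixed and immunostained for each phospho-epitope. Eu-labelled secondary read by time-resolved fluorescence (ex 340, em 615 nm), corrected by Hoechst 33258 signal (ex 355, em 460 nm). IC50 from sigmoidal dose-response fit.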

The next experiment relates to pAkt(S473). The experiment in a line: In-cell Western assay, pAkt(S473), PC3 cells. As to conditions: Homo sapiens, PC-3, 2 hours incubation. Format: cell-based. On the procedure: as §1

Where only a bound is given, the exact number is not on record here.

T2 sequence (P42345 1362-2549 limits assumed): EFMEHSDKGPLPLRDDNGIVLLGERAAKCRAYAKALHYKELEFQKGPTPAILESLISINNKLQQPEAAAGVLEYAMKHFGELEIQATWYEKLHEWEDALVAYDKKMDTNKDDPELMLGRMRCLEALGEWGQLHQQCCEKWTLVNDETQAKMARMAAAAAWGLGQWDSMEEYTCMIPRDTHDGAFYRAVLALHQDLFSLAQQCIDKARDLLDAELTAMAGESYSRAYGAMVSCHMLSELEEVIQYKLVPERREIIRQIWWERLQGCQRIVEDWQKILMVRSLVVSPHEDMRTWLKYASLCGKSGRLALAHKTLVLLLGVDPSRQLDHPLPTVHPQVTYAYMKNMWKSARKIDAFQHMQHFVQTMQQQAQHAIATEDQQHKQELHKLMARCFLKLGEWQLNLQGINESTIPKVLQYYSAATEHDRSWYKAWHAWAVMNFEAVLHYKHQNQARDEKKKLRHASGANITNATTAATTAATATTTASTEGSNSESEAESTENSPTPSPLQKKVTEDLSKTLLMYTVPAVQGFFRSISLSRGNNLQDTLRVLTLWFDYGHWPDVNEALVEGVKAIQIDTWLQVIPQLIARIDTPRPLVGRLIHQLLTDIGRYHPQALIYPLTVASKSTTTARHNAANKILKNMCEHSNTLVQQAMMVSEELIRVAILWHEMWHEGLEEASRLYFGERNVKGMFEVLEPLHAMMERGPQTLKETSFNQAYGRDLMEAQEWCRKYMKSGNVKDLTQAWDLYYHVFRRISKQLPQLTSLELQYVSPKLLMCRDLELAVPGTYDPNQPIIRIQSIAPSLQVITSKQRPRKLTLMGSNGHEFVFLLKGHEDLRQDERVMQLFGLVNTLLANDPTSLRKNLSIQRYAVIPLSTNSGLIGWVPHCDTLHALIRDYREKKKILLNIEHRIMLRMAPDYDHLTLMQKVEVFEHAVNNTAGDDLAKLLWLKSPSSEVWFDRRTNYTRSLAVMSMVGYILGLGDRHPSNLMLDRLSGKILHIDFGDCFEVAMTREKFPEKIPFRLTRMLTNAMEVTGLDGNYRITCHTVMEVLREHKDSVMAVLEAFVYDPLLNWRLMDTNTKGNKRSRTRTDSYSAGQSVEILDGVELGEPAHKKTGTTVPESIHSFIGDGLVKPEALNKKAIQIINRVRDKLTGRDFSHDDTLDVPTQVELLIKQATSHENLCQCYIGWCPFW
T1 sequence (P42336 whole entry, species assumed): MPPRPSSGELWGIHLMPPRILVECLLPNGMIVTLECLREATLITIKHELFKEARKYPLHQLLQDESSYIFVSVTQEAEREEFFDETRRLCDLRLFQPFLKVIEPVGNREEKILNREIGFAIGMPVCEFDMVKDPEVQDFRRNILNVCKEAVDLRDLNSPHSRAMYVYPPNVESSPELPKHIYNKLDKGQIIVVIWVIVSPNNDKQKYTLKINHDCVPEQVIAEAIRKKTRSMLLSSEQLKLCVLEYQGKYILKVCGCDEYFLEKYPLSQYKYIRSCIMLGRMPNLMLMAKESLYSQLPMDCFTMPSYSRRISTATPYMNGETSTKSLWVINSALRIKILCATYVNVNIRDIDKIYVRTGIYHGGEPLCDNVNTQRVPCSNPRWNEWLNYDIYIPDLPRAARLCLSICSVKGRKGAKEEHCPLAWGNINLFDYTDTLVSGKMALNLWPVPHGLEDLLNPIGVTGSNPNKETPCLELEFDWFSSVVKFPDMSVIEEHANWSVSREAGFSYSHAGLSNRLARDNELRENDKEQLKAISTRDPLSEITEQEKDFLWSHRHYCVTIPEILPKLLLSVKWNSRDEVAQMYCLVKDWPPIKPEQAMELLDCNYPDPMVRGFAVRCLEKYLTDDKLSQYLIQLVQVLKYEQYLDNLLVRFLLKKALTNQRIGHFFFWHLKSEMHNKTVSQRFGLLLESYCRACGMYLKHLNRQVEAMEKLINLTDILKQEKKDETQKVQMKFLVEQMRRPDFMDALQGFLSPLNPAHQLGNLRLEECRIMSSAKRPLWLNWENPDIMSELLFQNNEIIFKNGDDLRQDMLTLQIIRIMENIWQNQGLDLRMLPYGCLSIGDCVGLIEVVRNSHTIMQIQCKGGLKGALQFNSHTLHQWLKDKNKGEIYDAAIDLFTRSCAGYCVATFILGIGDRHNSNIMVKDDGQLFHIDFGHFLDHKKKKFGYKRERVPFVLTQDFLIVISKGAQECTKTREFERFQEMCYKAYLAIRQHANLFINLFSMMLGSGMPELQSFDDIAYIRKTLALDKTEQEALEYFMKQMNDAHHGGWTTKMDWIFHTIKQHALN
T1 sequence (P27986 whole entry partner, species assumed): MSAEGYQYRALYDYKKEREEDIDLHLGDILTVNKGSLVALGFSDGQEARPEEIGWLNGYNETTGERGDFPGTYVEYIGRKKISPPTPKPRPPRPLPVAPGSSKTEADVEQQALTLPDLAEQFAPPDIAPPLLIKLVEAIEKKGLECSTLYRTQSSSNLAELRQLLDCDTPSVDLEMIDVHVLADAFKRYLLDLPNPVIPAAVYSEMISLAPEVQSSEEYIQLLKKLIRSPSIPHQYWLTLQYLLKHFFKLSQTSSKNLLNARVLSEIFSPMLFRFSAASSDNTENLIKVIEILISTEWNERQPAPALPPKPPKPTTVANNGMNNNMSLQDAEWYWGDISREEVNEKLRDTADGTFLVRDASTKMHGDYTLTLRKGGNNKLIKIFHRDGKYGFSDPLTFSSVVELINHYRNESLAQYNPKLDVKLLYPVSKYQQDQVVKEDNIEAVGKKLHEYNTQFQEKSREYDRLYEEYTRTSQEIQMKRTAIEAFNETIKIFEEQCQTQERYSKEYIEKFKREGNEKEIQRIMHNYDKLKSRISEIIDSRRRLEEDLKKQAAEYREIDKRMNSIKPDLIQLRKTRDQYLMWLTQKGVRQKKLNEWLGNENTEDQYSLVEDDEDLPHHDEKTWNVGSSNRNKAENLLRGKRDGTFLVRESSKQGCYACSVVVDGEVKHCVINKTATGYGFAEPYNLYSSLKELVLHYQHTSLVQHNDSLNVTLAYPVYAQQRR

With `Nc1ncc(-c2nc(N3CCOCC3)c3ncc(-c4cccc(NC(=O)C5CC5)c4)cc3n2)cn1` [Example 7, N-(3-(2-(2-Aminopyrimidin-5-yl)-4-morpholinopyrido[3,2-d]pyrimidin-7-yl)-phenyl)cyclopropanecarboxamide], the IC50 is < 50 nM at PI3Kα (wild-type); < 50 nM against mTOR kinase; 100 to 500 nM in the experiment on PC3 cells; 100 to 500 nM in the experiment with pS6RP (S235/236); 100 to 500 nM with pAkt(T308); < 100 nM in the experiment with pAkt(S473).
As to `CC(=O)Nc1cccc(-c2cnc3c(N4CCOCC4)nc(-c4cnc(N)nc4)nc3c2)c1` [Example 3, N-(3-(2-(2-Aminopyrimidin-5-yl)-4-morpholinopyrido[3,2-d]pyrimidin-7-yl)-phenyl)acetamide], the half-inhibitory concentration (IC50) on PI3Kα (wild-type) was < 50 nM; at mTOR kinase, < 50 nM; with PC3 cells, 100 to 500 nM; in the experiment with pS6RP (S235/236), 100 to 500 nM; with pAkt(T308), 100 to 500 nM; in the experiment with pAkt(S473), 100 to 500 nM.
Consider `N#CC1(C(=O)Nc2cccc(-c3cnc4c(N5CCOCC5)nc(-c5cnc(N)nc5)nc4c3)c2)CC1` [Example 61, N-(3-(2-(2-amino-pyrimidin-5-yl)-4-morpholinopyrido[3,2-d]pyrimidin-7-yl)phenyl)-1-cyanocyclopropane-carboxamide], for which the IC50 at PI3Kα (wild-type) was < 50 nM; on mTOR kinase, < 50 nM; in the experiment with PC3 cells it was 100 to 500 nM; in the experiment with pS6RP (S235/236), < 100 nM; with pAkt(T308), < 100 nM; with pAkt(S473) it was 100 to 500 nM.

As a reminder, the IC50 is the midpoint of a concentration-inhibition curve. Low readings indicate greater potency, high ones weaker potency.
